Residue numbers refer to the chain shown, from its start. Where two headings read alike, the source gives them in different places.
Key:
[1] = Computed Log P (PubChem, XLogP3-AA algorithm); conditions: worked out from Log P
Source text: Partition coefficient; Log P: The ratio of the concentrations of a solute between two solvents. When one of the solvents is non-polar and the other is water, this is a measure of lipophilicity and the logarithm of the ratio is Log P. Unless otherwise specified, the Log P values reported herein are from the National Library of Medicine “PubChem” database (which uses the XLogP3-AA algorithm for Log P determination).

[2] = tested on: male rats; conditions: 5 day course started 10 days after chronic constriction injury; cited from earlier work
[3] = target: T1, mouse TRPA1 (Mus musculus, UniProt Q8BLA8); conditions: HEK 293 cells transfected with mouse TRPA1; cited from earlier work
T1 construct: expressed in transfected cells; host or cells: HEK 293

[4] = tested on: glutathione content of cells; conditions: daily dosage of 1000 mg; patients; cited from earlier work
[5] = tested on: TRPA1; conditions: low level of 4-HNE; 25 degrees C. to 10 degrees; cited from earlier work
[6] = tested on: mice; conditions: low dose into the hind paws; zero degree cold plate; vehicle 125 seconds; cited from earlier work
[7] = tested on: formaldehyde induced pain and toxicity; conditions: [Bai, 2012], [Song, 2010]; cited from earlier work
[8] = tested on: chronic pain; assay: Self-reports of voluntary evaluators taking Protein-Allium (10 point pain scale, symptoms, side effects)
Source text: On a 10 point pain scale the pain level was 10.
On a 10 point pain scale, the pain level was 10.

[9] = target: TRPA1 (Homo sapiens, UniProt O75762); assay: TRPA1 agonist activity
[10] = target: T2, ALDH2*1 (Homo sapiens, UniProt P05091); conditions: [Perez-Miller, 2010]; cited from earlier work
T2 sequence (P05091 18-517): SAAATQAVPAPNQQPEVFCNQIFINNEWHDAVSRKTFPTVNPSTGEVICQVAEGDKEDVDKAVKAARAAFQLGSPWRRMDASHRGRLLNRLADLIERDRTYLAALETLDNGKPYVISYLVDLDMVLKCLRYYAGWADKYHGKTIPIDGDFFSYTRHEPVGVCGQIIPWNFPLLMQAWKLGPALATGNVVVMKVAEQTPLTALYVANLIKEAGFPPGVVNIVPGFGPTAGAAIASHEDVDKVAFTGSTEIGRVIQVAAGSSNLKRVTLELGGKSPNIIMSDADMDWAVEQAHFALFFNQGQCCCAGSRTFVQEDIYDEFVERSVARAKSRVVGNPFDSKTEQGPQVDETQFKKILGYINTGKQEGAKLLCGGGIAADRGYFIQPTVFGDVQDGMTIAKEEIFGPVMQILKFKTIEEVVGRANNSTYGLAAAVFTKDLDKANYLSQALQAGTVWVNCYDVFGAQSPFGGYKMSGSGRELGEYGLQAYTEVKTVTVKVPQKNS

[11] = tested on: ALDH2*1/*2 mice; conditions: 1.2 g stimulus level, 3 hours after carrageenan; cited from earlier work
[12] = tested on: wild-type and mutant mice; conditions: 10 to 40 minutes; formalin (2% aqueous formaldehyde) into the paw; both wild-type and mutant mice; cited from earlier work
[13] = target: T3, ALDH2*2 (Homo sapiens, UniProt P05091, E504K); conditions: [Chen, 2008]; cited from earlier work
T3 sequence (P05091 18-517 E504K): T2 sequence (P05091 18-517) with E487K

[14] = tested on: ALDH2*1/*2 mutant and wild-type mice; conditions: cited from earlier work; for licking or flinching: 100 ng into a rear paw

T1 sequence (Q8BLA8 whole entry): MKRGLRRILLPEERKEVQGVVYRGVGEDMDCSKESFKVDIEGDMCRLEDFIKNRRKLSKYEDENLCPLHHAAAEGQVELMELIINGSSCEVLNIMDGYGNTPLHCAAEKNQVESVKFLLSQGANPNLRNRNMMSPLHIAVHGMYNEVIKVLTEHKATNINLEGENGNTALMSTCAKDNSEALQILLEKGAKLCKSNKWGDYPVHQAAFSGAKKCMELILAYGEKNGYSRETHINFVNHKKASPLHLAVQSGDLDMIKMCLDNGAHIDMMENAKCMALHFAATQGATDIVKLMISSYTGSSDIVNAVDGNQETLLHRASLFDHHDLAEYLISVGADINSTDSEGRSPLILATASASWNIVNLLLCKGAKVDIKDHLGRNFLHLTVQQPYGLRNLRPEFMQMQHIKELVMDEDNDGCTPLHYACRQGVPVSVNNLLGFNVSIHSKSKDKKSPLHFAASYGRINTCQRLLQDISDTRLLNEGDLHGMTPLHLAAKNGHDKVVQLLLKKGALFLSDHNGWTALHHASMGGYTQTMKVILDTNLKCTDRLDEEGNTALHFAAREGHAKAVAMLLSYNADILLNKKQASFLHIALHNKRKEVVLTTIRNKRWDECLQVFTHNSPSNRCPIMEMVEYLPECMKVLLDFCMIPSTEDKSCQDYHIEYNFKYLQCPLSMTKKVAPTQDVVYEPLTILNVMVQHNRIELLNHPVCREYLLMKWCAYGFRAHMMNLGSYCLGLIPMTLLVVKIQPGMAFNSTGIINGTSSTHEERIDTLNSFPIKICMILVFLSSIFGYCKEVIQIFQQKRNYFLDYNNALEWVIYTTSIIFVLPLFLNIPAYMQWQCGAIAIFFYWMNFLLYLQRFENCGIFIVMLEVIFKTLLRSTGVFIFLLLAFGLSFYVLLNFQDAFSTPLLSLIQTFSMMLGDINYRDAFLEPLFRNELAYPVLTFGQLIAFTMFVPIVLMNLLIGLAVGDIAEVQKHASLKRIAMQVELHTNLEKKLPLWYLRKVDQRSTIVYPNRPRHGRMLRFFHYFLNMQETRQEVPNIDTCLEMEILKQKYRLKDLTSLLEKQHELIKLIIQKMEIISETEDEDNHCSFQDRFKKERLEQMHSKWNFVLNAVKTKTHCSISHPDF
Sequence of TRPA1 (Homo sapiens, UniProt O75762) (O75762 whole entry, species assumed): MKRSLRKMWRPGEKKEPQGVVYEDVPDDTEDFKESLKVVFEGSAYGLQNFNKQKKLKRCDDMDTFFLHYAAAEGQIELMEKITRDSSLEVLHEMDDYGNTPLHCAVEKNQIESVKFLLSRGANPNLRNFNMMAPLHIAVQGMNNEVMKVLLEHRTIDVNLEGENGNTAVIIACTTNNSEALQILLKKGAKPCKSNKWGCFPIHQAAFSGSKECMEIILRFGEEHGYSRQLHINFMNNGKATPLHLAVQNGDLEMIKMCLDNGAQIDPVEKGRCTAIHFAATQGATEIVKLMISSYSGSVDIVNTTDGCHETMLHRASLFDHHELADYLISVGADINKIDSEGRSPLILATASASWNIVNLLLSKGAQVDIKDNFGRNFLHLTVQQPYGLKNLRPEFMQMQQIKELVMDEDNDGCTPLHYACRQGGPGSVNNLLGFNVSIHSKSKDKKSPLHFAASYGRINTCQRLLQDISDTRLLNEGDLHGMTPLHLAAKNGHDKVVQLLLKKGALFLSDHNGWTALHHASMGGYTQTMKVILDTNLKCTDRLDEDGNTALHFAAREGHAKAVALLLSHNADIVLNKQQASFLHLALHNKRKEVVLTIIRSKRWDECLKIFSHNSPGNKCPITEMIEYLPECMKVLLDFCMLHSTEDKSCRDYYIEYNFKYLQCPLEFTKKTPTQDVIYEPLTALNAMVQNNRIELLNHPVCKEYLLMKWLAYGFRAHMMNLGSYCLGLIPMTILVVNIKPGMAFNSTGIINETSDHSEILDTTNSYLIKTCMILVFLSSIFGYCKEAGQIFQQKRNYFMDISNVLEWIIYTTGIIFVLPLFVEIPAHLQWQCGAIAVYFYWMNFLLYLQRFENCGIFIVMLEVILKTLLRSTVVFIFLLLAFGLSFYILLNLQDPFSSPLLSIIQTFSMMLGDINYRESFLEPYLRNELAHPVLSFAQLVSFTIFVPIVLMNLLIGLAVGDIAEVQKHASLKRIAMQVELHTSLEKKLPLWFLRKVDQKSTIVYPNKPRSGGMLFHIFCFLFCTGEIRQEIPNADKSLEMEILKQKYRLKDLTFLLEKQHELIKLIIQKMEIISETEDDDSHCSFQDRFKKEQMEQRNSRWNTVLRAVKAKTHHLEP

With N[C@@H](CS)C(=O)O [cysteine, (R)-2-Amino-3-mercaptopropanoic acid] as the molecule, how does the “partitions into water vs. oil” value [1] read?
Its value is ~300 to 1.

Which “duration of injury-related allodynia” value [2] does the source give for CN1CC[C@]23c4c5ccc(O)c4O[C@H]2[C@@H](O)C=C[C@H]3[C@H]1C5 [morphine] here?
The value was “more than doubling”.

With C=CCSSCC=C [Diallyl disulfide] as the molecule, how does the “concentration on the oily (lipid) side relative to the aqueous side” value [1] read?
The value was “about 160 times”.

For catalase, which “effect on H2O2-induced Ca^2+ increase” value [3] is on record?
Its value is “abolished”.

With O=C1O[C@H]([C@@H](O)CO)C(O)=C1O [vitamin C] as the molecule, how does the “mean percentage decrease of glutathione” value [4] read?
Its value is 60%.

For CCCCCC(O)C=CC=O (centres unmarked) [4-hydroxy-2-nonenal (4-HNE), 4-hydroxy-2-nonenal], which “potentiation of current flow by lowering the temperature” value [5] is on record?
Its value is 3 factor.

And the “time to first jump” value [6]?
Its value is 20 s.

Which “effect on H2O2-induced Ca^2+ increase” value [3] does the source give for O[C@H](CS)[C@H](O)CS (racemic) [dithiothreitol] here?
Its value is “markedly decreased”.

Which “concentration on the oily (lipid) side relative to the aqueous side” value [1] does the source give for CCCS [Propyl mercaptan, 1-PropaneThiol] here?
Its value is “about 65 times”.

Which “reducing formaldehyde induced pain and toxicity” value [7] does the source give for NNCCc1ccccc1 [Phenelzine] here?
Its value is “effective”.

For c1ccc(SSc2ccccn2)nc1 [2,2′-dipyridyl disulfide], which “intracellular Ca^2+” value [3] is on record?
The value was “increased intracellular Ca^2+ in a dose-dependent manner”.

For NCC1(CC(=O)O)CCCCC1 [Gabapentin], which side effects ([8]; self-report) is on record?
Its side effects is “bad side effects (drowsiness)”.

What about the “muscle memory (residual pain), shoulder neuropathy” value ([8]; subject two) of the same molecule?
Its value is “always had muscle memory of the pain”.

Which “benefit on back pain” value ([8]; injection, subject one) does the source give for C[C@]12CCC(=O)C=C1CC[C@@H]1[C@@H]2C(=O)C[C@@]2(C)[C@H]1CC[C@]2(O)C(=O)CO [cortisone] here?
The value was “minimal benefit”.

For CCCCC/C=C/C=C1/C(=O)C=C[C@@H]1C/C=C\CCCC(=O)O [15d-PGJ2], which “more active than 4-HNE” value [9] is on record?
The value was ~10.

With COc1ccc2cc([C@H](C)C(=O)O)ccc2c1 [Naprosyn] as the molecule, how does the “pain level, adenomyosis” value ([8]; 10-point pain scale, subject two) read?
The value was 4.

With CCCSSCCC [disulfide from propyl mercaptan, dipropyl disulfide] as the molecule, how does the “concentration on the oily (lipid) side relative to the aqueous side” value [1] read?
The value was “about 500 times”.

With O=C(NCc1ccc2c(c1)OCO2)c1c(Cl)cccc1Cl [Alda-1] as the molecule, how does the “efficiency of ALDH2*1” value [10] read?
The value was “doubles”.

And the “less sensitive to mechanical pain than wild-type mice without treatment” value [11]?
The value was ~30%.

What about the “decrease of early second phase pain response” value [12] of the same molecule?
The value was ~60%.

And the “increase of the activity of ALDH2*2” value [13]?
The value was 2.2 fold.

Which “more hydrophilic than cysteine” value [1] does the source give for N[C@@H](CCS)C(=O)O [Homocysteine, (S)-2-Amino-4-mercaptobutyric acid] here?
Its value is ~10 ×.

Which results are given for CC=O [acetylaldehyde]?
licking or flinching ([14]; mutant mice): 5 s; licking or flinching ([14]; wild-type mice): 4 s; mutant mice more sensitive to pressure (nociceptive threshold) ([14]; after injection, mutant vs wild-type mice): 4 times

With CC12CCC(CC1=O)C2(C)C (centres unmarked) [camphor] as the molecule, how does the “effect on H2O2-induced Ca^2+ increase” value [3] read?
Its value is “prevents”.
